Values of other authors, collected in PMC11370232, “Repurposing of a library for high-content screening of inhibitors against Echinococcus granulosus” (Parasites & Vectors, 2024).
Where a name gives a salt, the structure may show the parent alone.

Experiments:
Pim2 = test system: Pim2; parameters: method as in SelleckChem library description; details: ref SelleckChem library description; cited from earlier work
Pim1 = test system: Pim1; parameters: method as in SelleckChem library description; details: ref SelleckChem library description; cited from earlier work
Pim3 = test system: Pim3; parameters: method as in SelleckChem library description; details: ref SelleckChem library description; cited from earlier work
HER2 = test system: HER2; parameters: method as in SelleckChem library description; details: ref SelleckChem library description; cited from earlier work
[1] = test system: Rac1 in MDA-MB-435 and MDA-MB-231 cells; parameters: method as in SelleckChem library description; details: ref SelleckChem library description; cited from earlier work
CDK1, 2, 4, 6 and 9 = test system: CDK1, 2, 4, 6 and 9; parameters: method as in SelleckChem library description; details: read-out: IC50, CDK1, 2, 4, 6 and 9; cell-free assays; ref SelleckChem library description; cited from earlier work
glucokinase (GK) = biological target: glucokinase (GK); parameters: method as in SelleckChem library description; details: ref SelleckChem library description; read-out: EC50, glucokinase activation; cited from earlier work
DNA synthesis = biological target: DNA synthesis; parameters: method as in SelleckChem library description; details: cell-free assay; ref SelleckChem library description; cited from earlier work
Akt1 = test system: Akt1; parameters: method as in SelleckChem library description; details: ref SelleckChem library description; cited from earlier work
ROCKII = test system: ROCKII; parameters: method as in SelleckChem library description; details: ref SelleckChem library description; cited from earlier work
ROCKI = test system: ROCKI; parameters: method as in SelleckChem library description; details: ref SelleckChem library description; cited from earlier work
PKA = test system: PKA; parameters: method as in SelleckChem library description; details: ref SelleckChem library description; cited from earlier work
Akt2 = test system: Akt2; parameters: method as in SelleckChem library description; details: ref SelleckChem library description; cited from earlier work
p70S6K = test system: p70S6K; parameters: method as in SelleckChem library description; details: ref SelleckChem library description; cited from earlier work
Akt3 = test system: Akt3; parameters: method as in SelleckChem library description; details: ref SelleckChem library description; cited from earlier work
EGFR(E746_A750) = test system: EGFR(E746_A750); parameters: method as in SelleckChem library description; details: ref SelleckChem library description; cited from earlier work
EGFR(L858R) = details: ref SelleckChem library description; cited from earlier work
EGFR = test system: EGFR; parameters: method as in SelleckChem library description; details: ref SelleckChem library description; cited from earlier work
PDGFR = test system: PDGFR; parameters: method as in SelleckChem library description; details: ref SelleckChem library description; cited from earlier work
Bcl-2 = biological target: Bcl-2; parameters: method as in SelleckChem library description; details: cell-free assay; ref SelleckChem library description; cited from earlier work

Structure (SMILES): CN1CCCN(C(=O)c2cccc(-c3ccc(/C=C4/C(=O)Nc5ccc(Cl)cc54)o3)c2)CC1 [CX-6258 HCl]
- IC50 (Pim2): 25 nM
- IC50 (Pim3): 16 nM

Structure (SMILES): CN(C)C/C=C/C(=O)Nc1cc2c(Nc3ccc(F)c(Cl)c3)ncnc2cc1O[C@H]1CCOC1 [Afatinib (BIBW2992) Dimaleate]
- IC50 (HER2): 14 nM

Structure (SMILES): CCn1c2ccccc2c2cc(Nc3ccnc(NCCCN4CCOCC4)n3)ccc21 [EHop-016]
- IC50 [1]: 1100 nM

Structure (SMILES): O=C(Nc1ncc(SCCN2CCCC2)s1)[C@]1(c2ccc(S(=O)(=O)C3CC3)cc2)C[C@H]1C1CCCCC1 [LY2608204]
- EC50 (glucokinase (GK)): 42 nM

Structure (SMILES): COc1cccc2c1C(=O)c1c(O)c3c(c(O)c1C2=O)C[C@@](O)(C(C)=O)C[C@@H]3O[C@H]1C[C@H](N)[C@H](O)[C@H](C)O1 [Daunorubicin HCl]
- Ki (DNA synthesis): 20 nM

Structure (SMILES): NC[C@@](O)(c1ccc(Cl)cc1)c1ccc(-c2cn[nH]c2)cc1 [AT13148]
- IC50 (Akt1): 38 nM
- IC50 (ROCKII): 4 nM
- IC50 (ROCKI): 6 nM
- IC50 (PKA): 3 nM
- IC50 (Akt2): 402 nM
- IC50 (p70S6K): 8 nM
- IC50 (Akt3): 50 nM

Structure (SMILES): C=CC(=O)Nc1cccc(Oc2nc(Nc3ccc(N4CCN(C)CC4)cc3)ncc2Cl)c1 [WZ3146]
- IC50 (EGFR(E746_A750)): 2 nM
- IC50 (EGFR(L858R)): 2 nM

Structure (SMILES): CC(C)(C)c1cc(C=C(C#N)C#N)cc(C(C)(C)C)c1O [Tyrphostin 9]
- IC50 (EGFR): 460000 nM
- IC50 (PDGFR): 500 nM

Structure (SMILES): COC1=CC(c2cc3ccccc3[nH]2)=N/C1=C\c1[nH]c(C)cc1C [Obatoclax Mesylate (GX15-070), Obatoclax Mesylate]
- Ki (Bcl-2): 220 nM
